How the values were obtained:
Human 5-lipoxygenase = molecular target: T1, Human 5-lipoxygenase (Homo sapiens, UniProt P09917); assay: Activity of compounds against 5-LO enzyme (LTB4 measurement and/or fluorescence method); format: biochemical; details: for inhibition at 10 µM: 5-LO, single concentration of 10 uM in duplicate; for IC50: 6 or 11 point dose response in duplicate
T1 construct: purchased Cayman 60402; host or cells: insect cells
T1 sequence (P09917 1-674): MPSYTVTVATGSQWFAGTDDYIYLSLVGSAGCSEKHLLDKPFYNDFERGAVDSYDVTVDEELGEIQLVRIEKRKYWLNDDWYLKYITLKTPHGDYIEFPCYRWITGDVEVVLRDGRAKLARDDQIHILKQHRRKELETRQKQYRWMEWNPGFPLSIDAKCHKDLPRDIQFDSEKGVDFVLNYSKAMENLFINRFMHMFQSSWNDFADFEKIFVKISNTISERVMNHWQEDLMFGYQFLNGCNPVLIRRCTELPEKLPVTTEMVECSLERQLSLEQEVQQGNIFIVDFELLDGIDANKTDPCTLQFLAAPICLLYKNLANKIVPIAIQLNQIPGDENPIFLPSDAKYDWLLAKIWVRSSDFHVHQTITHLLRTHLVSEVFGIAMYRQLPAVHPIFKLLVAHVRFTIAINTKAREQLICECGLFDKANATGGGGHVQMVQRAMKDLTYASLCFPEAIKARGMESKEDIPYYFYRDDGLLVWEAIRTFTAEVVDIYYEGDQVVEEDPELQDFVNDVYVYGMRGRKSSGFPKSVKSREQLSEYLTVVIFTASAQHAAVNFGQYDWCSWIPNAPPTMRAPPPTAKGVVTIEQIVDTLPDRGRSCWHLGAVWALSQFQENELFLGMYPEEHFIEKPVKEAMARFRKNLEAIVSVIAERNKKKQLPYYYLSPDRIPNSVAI
How it was run: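 Two read-outs: LTB4 measured by EIA and/or LC/MS/MS with LTB4-d4 standard after 15 min RT compound preincubation with insect-cell 5-LO and a 5 min 37 °C reaction on 3 uM arachidonic acid (0.1 mM ATP, pH 7.4). The room-temperature fluorescence format used 20 uM H2DCFDA, 100 uM ATP, 3 uM arachidonic acid, 5 min; IC50 from 6/11-point curves.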

Row | inhibition at 10 µM (Human 5-lipoxygenase) | IC50 (Human 5-lipoxygenase) | melting point | SMILES
1 | > 69% | 1 to 20 µM | 187.6 °C | CCc1nc2ccc(C)cn2c1C(=O)NCc1ccc(N2CCN(c3ccc(F)cc3)CC2)cc1 [compound 231, 2-Ethyl-N-(4-(4-(4-fluorophenyl)piperazin-1-yl)benzyl)-6-methylimidazo[1,2-a]pyridine-3-carboxamide]
2 | 40 to 69% | – | 197.9 °C | CCc1nc2ccc(Cl)cn2c1C(=O)NCc1ccc(N2CCC(C(F)(F)F)CC2)cc1 [compound 233, 6-Chloro-2-ethyl-N-(4-(4-(trifluoromethyl)piperidin-1-yl)benzyl)imidazo[1,2-a]pyridine-3-carboxamide]
3 | < 40% | – | 209.4 °C | CCc1nc2cc(Cl)ccn2c1C(=O)NCc1ccc(N2CCC(C(F)(F)F)CC2)cc1 [compound 234, 7-Chloro-2-ethyl-N-(4-(4-(trifluoromethyl)piperidin-1-yl)benzyl)imidazo[1,2-a]pyridine-3-carboxamide]
4 | < 40% | – | 194.2 °C | CCc1nc2ccc(Cl)cn2c1C(=O)NCc1ccc(N2CCC(F)(F)CC2)cc1 [compound 235, 6-chloro-N-(4-(4,4-difluoropiperidin-1-yl)benzyl)-2-ethylimidazo[1,2-a]pyridine-3-carboxamide]
5 | 40 to 69% | – | 166.3 °C | CCc1nc2cc(Cl)ccn2c1C(=O)NCc1ccc(N2CCC(F)(F)CC2)cc1 [compound 236, 7-Chloro-N-(4-(4,4-difluoropiperidin-1-yl)benzyl)-2-ethylimidazo[1,2-a]pyridine-3-carboxamide]
6 | < 40% | – | 163 °C | CCc1nc2ccc(Cl)cn2c1C(=O)NCc1ccc(N2CCN3CCCC3C2)cc1 (centres unmarked) [compound 237, 6-Chloro-2-ethyl-N-(4-(hexahydropyrrolo[1,2-a]pyrazin-2(1H)-yl)benzyl)imidazo[1,2-a]pyridine-3-carboxamide]
7 | < 40% | – | 176.7 °C | CCNC(=O)c1c(CC)nc2ccc(Cl)cn12 [compound 238, 6-Chloro-N,2-diethylimidazo[1,2-a]pyridine-3-carboxamide]
8 | < 40% | – | 162.2 °C | CCc1nc2ccc(Cl)cn2c1C(=O)NCC(C)C [compound 239, 6-Chloro-2-ethyl-N-isobutylimidazo[1,2-a]pyridine-3-carboxamide]
9 | < 40% | – | 228.2 °C | CCc1nc2ccc(Br)cn2c1C(=O)NCc1ccc(N2CCOCC2)cc1 [compound 240, 6-Bromo-2-ethyl-N-(4-morpholinobenzyl)imidazo[1,2-a]pyridine-3-carboxamide]
10 | < 40% | – | 197.3 °C | CCc1nc2c(F)cccn2c1C(=O)NCc1ccc(N2CCOCC2)cc1 [compound 242, 2-Ethyl-8-fluoro-N-(4-morpholinobenzyl)imidazo[1,2-a]pyridine-3-carboxamide]
11 | > 69% | < 1 µM | 144.2 °C | CCc1nc2ccccn2c1C(=O)NCc1ccc(N2CCC(COc3ccc(F)cc3)CC2)cc1 [compound 243, 2-Ethyl-N-(4-(4-((4-fluorophenoxy)methyl)piperidin-1-yl)benzyl)imidazo[1,2-a]pyridine-3-carboxamide]
12 | 40 to 69% | – | 171 °C | CCc1nc2ccc(Cl)cn2c1C(=O)NCc1ccc(N2CCC(COc3ccc(F)cc3)CC2)cc1 [compound 244, 6-Chloro-2-ethyl-N-(4-(4-((4-fluorophenoxy)methyl)piperidin-1-yl)benzyl)imidazo[1,2-a]pyridine-3-carboxamide]
13 | < 40% | – | 186.5 °C | CCc1nc2cc(Cl)ccn2c1C(=O)NCc1ccc(N2CCC(COc3ccc(F)cc3)CC2)cc1 [compound 245, 7-Chloro-2-ethyl-N-(4-(4-((4-fluorophenoxy)methyl)piperidin-1-yl)benzyl)imidazo[1,2-a]pyridine-3-carboxamide]
14 | < 40% | – | 235.2 °C | CCc1nc2cc(N3CCN(c4ccccc4)CC3)ccn2c1C(=O)NCc1ccc(C(F)(F)F)cc1 [compound 246, 2-Ethyl-7-(4-phenylpiperazin-1-yl)-N-(4-(trifluoromethyl)benzyl)imidazo[1,2-a]pyridine-3-carboxamide]
15 | 40 to 69% | – | 162.1 °C | CCc1nc2ccc(Cl)cn2c1C(=O)NCc1ccc(N2CCC(COC)CC2)cc1 [compound 247, 6-Chloro-2-ethyl-N-(4-(4-(methoxymethyl)piperidin-1-yl)benzyl)imidazo[1,2-a]pyridine-3-carboxamide]
16 | < 40% | – | 172.5 °C | CCc1nc2cc(Cl)ccn2c1C(=O)NCc1ccc(N2CCC(COC)CC2)cc1 [compound 248, 7-Chloro-2-ethyl-N-(4-(4-(methoxymethyl)piperidin-1-yl)benzyl)imidazo[1,2-a]pyridine-3-carboxamide]
17 | 40 to 69% | – | 164 °C | CCc1nc2ccc(Cl)cn2c1C(=O)NCc1ccc(N2CCC(c3ccc(F)cc3)CC2)cc1 [compound 249, 6-Chloro-2-ethyl-N-(4-(4-(4-fluorophenyl)piperidin-1-yl)benzyl)imidazo[1,2-a]pyridine-3-carboxamide]
18 | 40 to 69% | – | 182.7 °C | CCc1nc2cc(Cl)ccn2c1C(=O)NCc1ccc(N2CCC(c3ccc(F)cc3)CC2)cc1 [compound 250, 7-Chloro-2-ethyl-N-(4-(4-(4-fluorophenyl)piperidin-1-yl)benzyl)imidazo[1,2-a]pyridine-3-carboxamide]
19 | < 40% | – | 117.9 °C | CCc1nc2cc(Cl)ccn2c1C(=O)NCc1ccc(N2CCCCC2C)cc1 (centres unmarked) [compound 252, 7-chloro-2-ethyl-N-(4-(2-methylpiperidin-1-yl)benzyl)imidazo[1,2-a]pyridine-3-carboxamide]
20 | < 40% | – | 202.6 °C | CCc1nc2cc(Br)ccn2c1C(=O)NCc1ccc(N2CCOCC2)cc1 [compound 253, 7-Bromo-2-ethyl-N-(4-morpholinobenzyl)imidazo[1,2-a]pyridine-3-carboxamide]
21 | < 40% | – | 204.8 °C | CCc1nc2cc(N3CCN(C)CC3)ccn2c1C(=O)NCc1ccc(N2CCOCC2)cc1 [compound 254, 2-Ethyl-7-(4-methylpiperazin-1-yl)-N-(4-morpholinobenzyl)imidazo[1,2-a]pyridine-3-carboxamide]
22 | < 40% | – | 210.1 °C | CCc1nc2cc(-c3ccncc3)ccn2c1C(=O)NCc1ccc(N2CCOCC2)cc1 [compound 255, 2-Ethyl-N-(4-morpholinobenzyl)-7-(pyridin-4-yl)imidazo[1,2-a]pyridine-3-carboxamide]
23 | 40 to 69% | – | 212.5 °C | CCc1nc2cc(N3CCN(Cc4ccc(F)cc4)CC3)ccn2c1C(=O)NCc1ccc(N2CCOCC2)cc1 [compound 257, 2-Ethyl-7-(4-(4-fluorobenzyl)piperazin-1-yl)-N-(4-morpholinobenzyl)imidazo[1,2-a]pyridine-3-carboxamide]
24 | > 69% | < 1 µM | 146 °C | CCc1nc2ccccn2c1C(=O)NCc1ccc(N2CCC(c3ccc(OC(F)(F)F)cc3)CC2)cc1 [compound 266, 2-Ethyl-N-(4-(4-(4-(trifluoromethoxy)phenyl)piperidin-1-yl)benzyl)imidazo[1,2-a]pyridine-3-carboxamide]
25 | 40 to 69% | – | 173.8 °C | CCc1nc2ccc(OC)cn2c1C(=O)NCc1ccc(N2CCN(c3ccc(F)cc3)CC2)cc1 [compound 271, 2-Ethyl-N-(4-(4-(4-fluorophenyl)piperazin-1-yl)benzyl)-6-methoxyimidazo[1,2-a]pyridine-3-carboxamide]
26 | < 40% | – | 207.6 °C | CCc1nc2ccc(C(F)(F)F)cn2c1C(=O)NCc1ccc(N2CCOCC2)cc1 [compound 273, 2-Ethyl-N-(4-morpholinobenzyl)-6-(trifluoromethyl)imidazo[1,2-a]pyridine-3-carboxamide]
27 | < 40% | – | 200.6 °C | CCc1nc2c(C(F)(F)F)cccn2c1C(=O)NCc1ccc(N2CCOCC2)cc1 [compound 274, 2-Ethyl-N-(4-morpholinobenzyl)-8-(trifluoromethyl)imidazo[1,2-a]pyridine-3-carboxamide]
28 | 40 to 69% | – | 186.3 °C | CCc1nc2c(OC(F)F)cccn2c1C(=O)NCc1ccc(N2CCN(c3ccc(F)cc3)CC2)cc1 [compound 278, 8-(Difluoromethoxy)-2-ethyl-N-(4-(4-(4-fluorophenyl)piperazin-1-yl)benzyl)imidazo[1,2-a]pyridine-3-carboxamide]

From patent publication US9029389B2 (Institut Pasteur Korea, priority 2011, dated 2015)
